Results from US11541019B2, “Compositions for use in the treatment of diabetes” (University of Ulster, priority 2015, dated 2023).
Where two headings read alike, the source gives them in different places.

Assays:
BRIN-BD11 cells [1] = assay: Acute insulin secretion from clonal BRIN-BD11 cells (radioimmunoassay); format: cell-based; settings: for concentrations that enhanced insulin release: tested 10^−12-10^−4 mol/L; for EC50: Rattus norvegicus, BRIN-BD11, 20 min, 20 min incubation, read-out: EC50 of enhanced insulin release
Description: (§1) Insulin-secreting BRIN-BD11 cells were cultured with RPMI-1640 media (11.1 mM glucose) containing antibiotics (100 U/ml penicillin and 0.1 mg/ml streptomycin) and 10% foetal calf serum at 37° C. in an atmosphere of 95% air and 5% carbon dioxide. For acute insulin secretion studies, cells were detached using trypsin/EDTA and incubated overnight in 24 well plates with 150,000 cells per well. Cells were then pre-incubated for 40 minutes at 1.1 mmol/l glucose in Krebs buffer (comprising 4.7 mmol/l KCL, 115 mmol/l NaCl, 1.28 mmol/CaCl2, 10 mmol/l NaHCO3, 5 g/l BSA, 1.2 mmol/l KH2PO4, 1.2 mmol/l MgSO47H2O pH 7.4). Test incubations were then performed at 37° C. for 20 minutes. DIM, indole-3-carbinol, embelin, [6]-gingerol, and [6]-shogaol at 10^−12-10^−4 mol/L were tested at both 5.6 mmol/L and 16.7 mmol/L glucose, as indicated in the accompanying drawings. Supernatants were removed, evaluated for lactate dehydrogenase (LDH) release as an indicator of cytotoxicity (as per manufacturer's protocol) or frozen at −20° C. until determination of insulin by radioimmunoassay.

BRIN-BD11 cells [2] = assay: LDH release from BRIN-BD11 cells as indicator of cytotoxicity; format: cell-based
Description: as §1

BRIN-BD11 cells [3] = assay: Intracellular Ca2+ in BRIN-BD11 cells (Flex calcium assay kit); format: cell-based; settings: 10^−4 mol/L, 16.7 mM glucose
Description: (§2) For intracellular Ca2+ measurement, monolayers of BRIN-BD11 cells were seeded overnight at a density of 80,000 cells per well in a 96-well black walled clear bottom plate. Cells were washed with 100 μl of Krebs buffer and incubated for 1 hour with Flex calcium assay kit reagent at 37° C. GPR84 at 10^−4 mol/L were added at 5.6 mmol/L and 16.7 mmol/L glucose. Fluorometric data were obtained using the FLEX Station scanner and test solutions were transferred using fluid transfer workstation at a wavelength of 525 nm (Molecular Devices). For cAMP determination, BRIN-BD11 cells were seeded in a 96-well plate at a density of 30,000 cells per well. Cells were washed with 300 μl Krebs buffer for 40 min and 150 μl of compositions of the present invention at 10^−10-10^−4 mol/L were tested at […] glucose. After 20 minutes, test solutions were removed and 0.1M HCL (150 μL) was added to lyse the cells. Total cAMP production in the cell supernatants were measured using cAMP enzyme immunoassay kit according to the manufacturer's protocol (Sigma, Poole, UK).

BRIN-BD11 cells [4] = assay: cAMP production in BRIN-BD11 cells (enzyme immunoassay); format: cell-based; settings: 11.1 mM glucose, 20 min
Description: as §2

NIH Swiss mice = assay: Acute effects on plasma glucose and insulin after oral glucose load; format: in vivo; settings: for circulating (plasma) glucose after glucose load / plasma insulin (insulin release) after glucose load: high fat fed mice, oral 50 μmol/kg with glucose 18 mmol/kg
Description: Adult male (20-22 week) NIH Swiss mice (Harlan UK Ltd) were individually housed in an air-conditioned room at 22±2° C. with 12 hour light: 12 hour darkness cycles. […] Non-fasted NIH Swiss mice (n=6) received an oral injection of glucose alone (18 mmol/kg body weight) or in combination with compositions of the present invention (50 μmol/kg body weight). Blood samples were obtained from the cut tip from tail vein of conscious mice and centrifuged at 13,000 rpm for 3 minutes at 4° C. Plasma glucose was measured by an automated glucose oxidase procedure using a Beckman glucose analyser and insulin determined by radioimmunoassay. All animal experiments were carried out in accordance with the UK Animal (Scientific Procedures) Act 1986.

[5] = system: high fat fed diabetic NIH Swiss mice; assay: Long-term daily oral administration in high fat fed diabetic mice; format: in vivo; settings: for pancreatic insulin content: HFF model; for plasma insulin following oral glucose / plasma glucose following a glucose load: after long-term daily administration; for plasma glucose following a glucose load: glucose 18 mmol/kg; for increase in circulating GLP-1: at 30 min after oral glucose, long term study; for plasma GLP-1: at the end of the study; for insulin sensitivity: insulin 25 U/kg; for body weight: daily oral for 21 days; for non-fasting plasma insulin: after 21 days; for decrease in plasma glucose, area under the curve: over 21 days; for GLP-1 secretion: over the long term study, after oral glucose
Description: […] In order to confirm diabetes, an oral glucose tolerance test (OGTT) was performed. Food intake, fluid intake, body weight, non-fasted plasma glucose and insulin concentrations were monitored every 2- to 4-days as indicated in the accompanying drawings. At the end of the study, glucose tolerance (18 mmol/kg body weight) and insulin sensitivity (25 U/kg body weight) were assessed. Mice were anesthetised by isoflurane and killed by cervical dislocation. Dual energy X-ray absorption (DEXA) scanning was performed after prior calibration and quality control with the aluminium/lucite phantom (0.069 g/cm2, 12.0% fat) using a PIXImus system (software version 1.4x).

[6] = high fat fed mice, daily administration
[7] = 5.6 mM or 16.7 mM glucose, not separated at the place

Structure (SMILES)	concentrations that enhanced insulin release (BRIN-BD11 cells [1]; 5.6 mM glucose)	concentrations that enhanced insulin release (BRIN-BD11 cells [1]; 16.7 mM glucose)	EC50 (BRIN-BD11 cells [1]; 5.6 mM basal glucose) [nM]	EC50 (BRIN-BD11 cells [1]; 16.7 mM stimulatory glucose) [nM]	cytotoxicity (LDH release) (BRIN-BD11 cells [2]; 5.6 mM glucose)	cytotoxicity (LDH release) (BRIN-BD11 cells [2]; 16.7 mM glucose)	intracellular Ca2+ concentrations (BRIN-BD11 cells [3])	cAMP production / involvement of cAMP pathway (BRIN-BD11 cells [4])	circulating (plasma) glucose after glucose load (NIH Swiss mice)	plasma insulin (insulin release) after glucose load (NIH Swiss mice)	pancreatic insulin content ([5]; daily administration)	plasma insulin following oral glucose ([5]; high fat fed mice)	plasma glucose following a glucose load ([5]; high fat fed mice)	increase in circulating GLP-1 ([5]; high fat fed mice) [%]	plasma GLP-1 ([5]; high fat fed mice)	total body fat (DEXA) [5, 6]	insulin sensitivity [5, 6]	body weight ([5]; high fat fed mice)	non-fasting plasma insulin ([5]; high fat fed mice, daily oral)	decrease in plasma glucose, area under the curve ([5]; high fat fed mice, daily oral) [%]	also measured
c1ccc2c(Cc3c[nH]c4ccccc34)c[nH]c2c1 [Diindolylmethane, 3,3′-methanediylbis(1H-indole)]	10^−8-10^−4 mol/L	10^−9-10^−4 mol/L	130	1000	No cytotoxicity	No cytotoxicity	increased intracellular Ca2+ concentrations	involves the cAMP-dependent pathway	decreased circulating glucose	increase in insulin release	reduced pancreatic insulin content	decreased plasma insulin	attenuated	61	raised	decreased body fat	decreased	decreased body weight after 15 days	augmented	18	energy intake ([5]; high fat fed mice, daily oral): decreased energy intake; fluid intake ([5]; high fat fed mice, daily oral): no effect on fluid intake; non-fasting plasma glucose ([5]; high fat fed mice, daily oral, at 21 days): decrease in plasma glucose; GLP-1 secretion ([5]; high fat fed mice): increased GLP-1 secretion
CCCCCCCCCCCC1=C(O)C(=O)C=C(O)C1=O [Embelin, 2,5-dihydroxy-3-undecylcyclohexa-2,5-diene-1,4-dione]	10^−9-10^−4 mol/L	10^−10-10^−4 mol/L	730	210	No cytotoxicity	No cytotoxicity	increased intracellular Ca2+ concentrations	involves the cAMP-dependent pathway	decreased circulating glucose	increase in insulin release	reduced pancreatic insulin content	decreased plasma insulin	significantly decreased	45	raised	no change in total body fat	decreased	no effect on body weight	augmented	17	low-density lipoprotein (LDL) cholesterol [5, 6]: reduced; total cholesterol [5, 6]: reduced; non-fasting plasma glucose ([5]; high fat fed mice, daily oral, after 9 days of treatment): significant decrease in plasma glucose; GLP-1 secretion ([5]; high fat fed mice): increased GLP-1 secretion
OCc1c[nH]c2ccccc12 [Indole-3-carbinol, 1H-Indol-3-ylmethanol]	10^−7-10^−4 mol/L	10^−6-10^−4 mol/L	1500	400	–	–	–	–	significantly decreased	–	–	–	–	–	–	–	–	–	–	–	cytotoxicity (LDH release) (BRIN-BD11 cells [2]; [7]): No cytotoxicity
CCCCC[C@H](O)CC(=O)CCc1ccc(O)c(OC)c1 [[6]-gingerol, (5S)-5-hydroxy-1-(4-hydroxy-3-methoxyphenyl)decan-3-one]	10^−8-10^−4 mol/L	10^−8-10^−4 mol/L	1900	2800	–	–	–	–	–	–	–	–	–	–	–	–	–	–	–	–	cytotoxicity (LDH release) (BRIN-BD11 cells [2]; [7]): No cytotoxicity; plasma glucose after glucose load (NIH Swiss mice; NIH Swiss mice, diet not separated (normal chow and high fat), oral with glucose 18 mmol/kg): significant decrease
CCCCC/C=C/C(=O)CCc1ccc(O)c(OC)c1 [[6]-shogaol, (E)-1-(4-hydroxy-3-methoxyphenyl)dec-4-en-3-one]	–	–	–	–	–	–	increased intracellular Ca2+ concentrations	act through the cAMP pathway	–	–	–	–	–	–	–	–	–	–	–	–	–
